Eleven compounds from ChEMBL document CHEMBL1201862, “PubChem BioAssay data set” (2004) can be followed below.

Test systems include A549; CCRF-CEM; DU-145; HL-60; HOP-92; KM12; MCF7; MDA-MB-231; MDA-MB-435; OVCAR-4; PC-3; RPMI-8226; SF-268; SF-295; SK-MEL-28; SK-MEL-2; TK-10; U-251; UACC-62; BT-549.
Assay in all cases: NCI-60 cell line screen, 48 h

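Dose response: 5 concentrations. Exposure: 48 h. Format: 96-well plates. Endpoint: linear interpolation; highest concentration if not reached. GI50 = concentration required for 50% inhibition of growth.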 Activity calls are given as the source filed them. Cut-off read from the data, not from the text of the source: active = GI50 up to about 1.1 µM and inactive = higher.

Take `CC(C)S(=O)(=O)ON1C(=O)c2ccc(N(C)C)cc2C1=O`: the GI50 was 25 µM (inactive) in the experiment with A549; 0.918 µM (active) in the experiment on CCRF-CEM; > 10 µM (inactive) with DU-145; 3.41 µM (inactive) in the experiment on HL-60; 7.35 µM (inactive) in the experiment with HOP-92; 21.4 µM (inactive) with KM12. Moreover, the GI50 in the experiment with MCF7 was 5.93 µM (inactive); with MDA-MB-231, 6.17 µM (inactive); with MDA-MB-435, 2.04 µM (inactive); in the experiment with OVCAR-4 it was 17.7 µM (inactive); with PC-3, > 10 µM (inactive); in the experiment with RPMI-8226 it was 2.58 µM (inactive). The GI50 with SF-268 was 24 µM (inactive); with SF-295 it was 30.9 µM (inactive); with SK-MEL-28, 21.4 µM (inactive); in the experiment with SK-MEL-2, 4.01 µM (inactive); in the experiment with TK-10, 20.5 µM (inactive); in the experiment on U-251 it was 15.8 µM (inactive). Besides, in the experiment with UACC-62, the GI50 is 15.5 µM (inactive).
`C/C=C1\CC2C(=O)CCC2C2c3ccccc3OC12` (centres undefined): the GI50 is > 100 µM (inactive) in the experiment with A549; > 100 µM (inactive) in the experiment on CCRF-CEM; 0.0617 µM (active) in the experiment with DU-145; 87.7 µM (inactive) with HL-60; > 100 µM (inactive) in the experiment with HOP-92; > 100 µM (inactive) with KM12. Besides, the GI50 in the experiment on MCF7, in the experiment on MDA-MB-231, in the experiment on MDA-MB-435, in the experiment on OVCAR-4, in the experiment on PC-3 and in the experiment with RPMI-8226 was > 100 µM (inactive) in each case. For the same compound, the GI50 with SF-268, in the experiment on SF-295, with SK-MEL-28, in the experiment with SK-MEL-2, in the experiment with TK-10 and in the experiment on U-251 was > 100 µM (inactive) throughout. The GI50 in the experiment on UACC-62 is > 100 µM (inactive).
Turning to `O=C(Nc1ccccc1)N(C1=NCC(CI)S1)c1ccc(F)c(F)c1` (centres undefined), the GI50 in the experiment with A549 was 26.4 µM (inactive); in the experiment with CCRF-CEM it was 19.3 µM (inactive); in the experiment on DU-145, > 100 µM (inactive); with HL-60 it was 21.4 µM (inactive); in the experiment on HOP-92, 7.03 µM (inactive); in the experiment with KM12 it was 32.6 µM (inactive). Also, the GI50 in the experiment with MCF7 is 22.4 µM (inactive); with MDA-MB-231 it was 24.8 µM (inactive); in the experiment with OVCAR-4, 29.4 µM (inactive); in the experiment with PC-3 it was 25.4 µM (inactive); in the experiment with RPMI-8226 it was 21.2 µM (inactive); with SF-268 it was 21.3 µM (inactive). For the same compound, the GI50 in the experiment with SF-295 is > 100 µM (inactive); in the experiment with SK-MEL-28, 12.4 µM (inactive); in the experiment on SK-MEL-2 it was 23.9 µM (inactive); in the experiment with TK-10, 44 µM (inactive); in the experiment on U-251, 54.1 µM (inactive).
In the case of `COc1ccccc1NC(=S)Nc1cccc(C)n1`, the GI50 in the experiment on A549 is > 100 µM (inactive); in the experiment with BT-549, > 100 µM (inactive); in the experiment with CCRF-CEM it was > 100 µM (inactive); in the experiment on DU-145, > 100 µM (inactive); with HL-60 it was > 100 µM (inactive); in the experiment on KM12, 25.6 µM (inactive). In addition, the GI50 in the experiment on MCF7 was > 100 µM (inactive); in the experiment on MDA-MB-435, > 100 µM (inactive); with OVCAR-4 it was > 100 µM (inactive); with PC-3, > 100 µM (inactive); in the experiment on RPMI-8226, > 100 µM (inactive); in the experiment on SF-268, 18.4 µM (inactive). For the same compound, the GI50 with SF-295 was 69 µM (inactive); with SK-MEL-28, > 100 µM (inactive); in the experiment on SK-MEL-2, > 100 µM (inactive); in the experiment on TK-10, > 100 µM (inactive); in the experiment on U-251 it was > 100 µM (inactive); in the experiment with UACC-62 it was 42.4 µM (inactive).
For `CCCCCC(=O)OC[n+]1ccc2c(C)c3[nH]c4ccc(OC)cc4c3c(C)c2c1`, the GI50 in the experiment with A549 was 0.284 µM (active); in the experiment on CCRF-CEM it was 0.0805 µM (active); with DU-145 it was 0.505 µM (active); in the experiment with HL-60, 0.241 µM (active); in the experiment on HOP-92, 1.2 µM (inactive); in the experiment with KM12 it was 0.225 µM (active). Besides, the GI50 in the experiment on MCF7 was 0.225 µM (active); in the experiment on MDA-MB-231, 0.244 µM (active); with MDA-MB-435 it was 0.499 µM (active); with OVCAR-4, 0.811 µM (active); in the experiment with PC-3 it was 0.193 µM (active); with RPMI-8226, 0.0619 µM (active). Besides, the GI50 in the experiment with SF-268 is 0.211 µM (active); in the experiment with SF-295 it was 0.395 µM (active); in the experiment on SK-MEL-28, 0.766 µM (active); with SK-MEL-2, 1.61 µM (inactive); in the experiment with TK-10 it was 2.55 µM (inactive); in the experiment on U-251 it was 0.321 µM (active). The GI50 with UACC-62 was 0.966 µM (active).
Take `CN(CCCNCc1ccccn1)Cc1ccccc1O`: the GI50 in the experiment on A549 was 37.1 µM (inactive); in the experiment on CCRF-CEM it was 50.8 µM (inactive); with DU-145, 40.1 µM (inactive); in the experiment with HL-60, 2.74 µM (inactive); with HOP-92, 42.9 µM (inactive); with KM12 it was 28.5 µM (inactive). Further, the GI50 is 43 µM (inactive) in the experiment on MCF7; > 100 µM (inactive) in the experiment with MDA-MB-231; 44.4 µM (inactive) with MDA-MB-435; 31.8 µM (inactive) in the experiment on OVCAR-4; 65.3 µM (inactive) in the experiment on PC-3; 36.3 µM (inactive) with RPMI-8226. For the same compound, the GI50 is 57.9 µM (inactive) with SF-268; 20.4 µM (inactive) with SF-295; > 100 µM (inactive) with SK-MEL-28; 35.2 µM (inactive) with SK-MEL-2; 7.21 µM (inactive) with TK-10; 96.8 µM (inactive) with U-251. Further, the GI50 with UACC-62 is 18.7 µM (inactive).
Turning to `CCOCc1c(C)cc(C)c(C2C(C(=O)c3ccccc3)N3c4ccccc4C=CC3C2(C#N)C(=O)OCC)c1C` (centres undefined), the GI50 was 28.1 µM (inactive) in the experiment with BT-549; 56.4 µM (inactive) in the experiment on CCRF-CEM; 37.8 µM (inactive) with DU-145; > 100 µM (inactive) with HL-60; 16.8 µM (inactive) with KM12; 24.8 µM (inactive) with MCF7. Further, the GI50 is 38.7 µM (inactive) with MDA-MB-435; 37 µM (inactive) with OVCAR-4; 25.8 µM (inactive) in the experiment on PC-3; 81.7 µM (inactive) in the experiment with RPMI-8226; 53.8 µM (inactive) in the experiment with SF-268; 53 µM (inactive) with SF-295. Besides, the GI50 in the experiment with SK-MEL-28 is 64.6 µM (inactive); in the experiment on U-251, 85.7 µM (inactive); in the experiment on UACC-62, 31 µM (inactive).
Consider `CN(CC(=O)O)c1ncc2c(n1)-c1ccccc1SC2`, for which the GI50 in the experiment with A549, with CCRF-CEM, in the experiment with DU-145, with HL-60, in the experiment with HOP-92 and in the experiment on KM12 was > 100 µM (inactive) throughout. Also, the GI50 in the experiment with MCF7 was 69.8 µM (inactive); in the experiment on MDA-MB-231 it was > 100 µM (inactive); with MDA-MB-435, > 100 µM (inactive); in the experiment on OVCAR-4, > 100 µM (inactive); in the experiment with PC-3, > 100 µM (inactive); with RPMI-8226, > 100 µM (inactive). Moreover, the GI50 with SF-268, in the experiment on SF-295, in the experiment on SK-MEL-28, in the experiment on SK-MEL-2, with TK-10 and in the experiment with U-251 was > 100 µM (inactive) throughout. Further, the GI50 in the experiment with UACC-62 was > 100 µM (inactive).
For the compound `CC(C)(C)OC(=O)NC1CCCC1C(O)(C1=CCCC1)C1=CCCC1` (centres undefined), the GI50 in the experiment on A549, with BT-549, in the experiment on CCRF-CEM, in the experiment with DU-145, with HL-60 and with HOP-92 was > 100 µM (inactive) in each case. Further, the GI50 was > 100 µM (inactive) with KM12; 43.2 µM (inactive) in the experiment with MDA-MB-231; > 100 µM (inactive) in the experiment on MDA-MB-435; 67.6 µM (inactive) in the experiment on OVCAR-4; > 100 µM (inactive) with PC-3; > 100 µM (inactive) with RPMI-8226. The GI50 in the experiment with SF-268 is > 100 µM (inactive); in the experiment on SK-MEL-28, > 100 µM (inactive); with SK-MEL-2, > 100 µM (inactive); in the experiment with U-251, > 100 µM (inactive); with UACC-62, 51.9 µM (inactive).
Take `CCCCCCCCCCCCCCCCOCC(COP(=O)(O)OCC1OC(n2cc(CC)c(=O)[nH]c2=O)CC1O)OC(=O)CCCCCCCCCCCCCCC` (centres undefined): the GI50 with A549 was > 100 µM (inactive); in the experiment on CCRF-CEM, > 100 µM (inactive); in the experiment on DU-145 it was > 100 µM (inactive); in the experiment on HL-60, 52 µM (inactive); in the experiment with HOP-92 it was > 100 µM (inactive); in the experiment with KM12, > 100 µM (inactive). Besides, the GI50 in the experiment on MCF7, in the experiment on MDA-MB-231, with MDA-MB-435, in the experiment on OVCAR-4, with PC-3 and with RPMI-8226 was > 100 µM (inactive) each time. In addition, the GI50 in the experiment with SF-268, in the experiment on SF-295, in the experiment with SK-MEL-28, with SK-MEL-2, in the experiment with TK-10 and in the experiment with U-251 was > 100 µM (inactive) throughout. For the same compound, the GI50 in the experiment on UACC-62 was > 100 µM (inactive).
For `Cc1ccc(S(=O)(=O)NC(=O)NCCc2c[nH]cn2)cc1`, the GI50 in the experiment on A549, in the experiment on DU-145, in the experiment with HL-60, with HOP-92, in the experiment on KM12 and with MCF7 was > 100 µM (inactive) each time. Further, the GI50 with MDA-MB-231, with MDA-MB-435, in the experiment on OVCAR-4, with PC-3, with RPMI-8226 and in the experiment on SF-268 was > 100 µM (inactive) each time. For the same compound, the GI50 in the experiment on SF-295, in the experiment on SK-MEL-28, in the experiment on SK-MEL-2, in the experiment with TK-10, in the experiment on U-251 and in the experiment on UACC-62 was > 100 µM (inactive) each time.
